From patent publication EP0450097B1, “BENZOHETEROCYCLIC COMPOUNDS” (OTSUKA PHARMACEUTICAL CO., LTD., priority 1989, dated 1991)

Each compound was assayed against T1, V₂ receptor (Rattus norvegicus, UniProt Q00788) (assay: V₂ receptor binding assay ([³H]-Arg-vasopressin, rat kidney plasma membrane preparations)). Settings: 4°C for 3 hours.
T1 construct: Using rat kidney plasma membrane preparations; from tissue; host or cells: rat kidney plasma membranes
T1 sequence (Q00788 whole entry): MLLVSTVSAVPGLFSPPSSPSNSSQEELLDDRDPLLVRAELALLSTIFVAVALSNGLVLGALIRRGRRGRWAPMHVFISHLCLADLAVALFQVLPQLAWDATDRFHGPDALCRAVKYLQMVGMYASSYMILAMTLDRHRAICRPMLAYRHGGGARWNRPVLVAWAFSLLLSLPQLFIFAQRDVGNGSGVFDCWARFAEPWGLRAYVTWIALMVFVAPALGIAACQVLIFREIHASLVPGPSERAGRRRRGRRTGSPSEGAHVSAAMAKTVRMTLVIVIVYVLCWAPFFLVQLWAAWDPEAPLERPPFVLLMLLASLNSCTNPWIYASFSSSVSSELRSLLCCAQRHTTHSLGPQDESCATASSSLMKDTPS
Protocol: Using rat kidney plasma membrane preparations prepared according to O. Hechter's method [cf: J. Bio. […] After incubation, the mixture is filtered using the glass filter (GF/F) so as to separate the membrane preparation combined with vasopressin and then washed twice with the buffer (5 ml). This glass filter is taken out and mixed with liquid scintillation cocktail. The amount of [³H]-vasopressin combined with the membrane is measured by liquid scintillation counter and the rate of the inhibitory effect of the test compound is estimated according to the following equation. Rate of the inhibitory effect (%) = 100 -(C1 - B1)/(C0 - B1)X 100 [formula] C¹: The amount of [³H]-vasopressin combined with the membrane in the presence of the test compound (in prescribed amount). C⁰: The amount of [³H)-vasopressin combined with the membrane in the absence of the test compound. B¹: The amount of [³H]-vasopressin combined with the membrane in the presence of the excess amount of vasopressin (10⁻⁶ M).
The results are expressed as IC₅₀ values, which is the concentration of the test compound required to achieve the inhibitory effect in the rate of 50 %.
`O=C(Nc1ccc(C(=O)N2CCCc3ccccc32)cc1)c1ccccc1` [Test compound 1, 1-(4-Benzoylaminobenzoyl)-1,2,3,4-tetrahydroquinoline] showed an IC50 of 980 nM. For `O=C(Nc1ccc(C(=O)N2CCCc3ccccc32)cc1)c1cccc(Cl)c1` [compound 2], the IC50 was 200 nM. In the case of `COc1cccc(C(=O)Nc2ccc(C(=O)N3CCCc4ccccc43)cc2)c1` [compound 3], the IC50 is reported as 400 nM. In the case of `N#Cc1cccc(C(=O)Nc2ccc(C(=O)N3CCCc4ccccc43)cc2)c1` [compound 4], the IC50 is reported as 580 nM. Work on `Nc1cccc(C(=O)Nc2ccc(C(=O)N3CCCc4ccccc43)cc2)c1` [compound 5] yielded an IC50 of 1200 nM. Work on `Cc1ccccc1C(=O)Nc1ccc(C(=O)N2CCCc3ccccc32)cc1` [compound 7] yielded an IC50 of 200 nM. `O=C(Nc1ccc(C(=O)N2CCCc3ccccc32)cc1)c1ccccc1C(F)(F)F` [compound 8] gave an IC50 of 320 nM. For `O=C(Nc1ccc(C(=O)N2CCCc3ccccc32)cc1)c1ccccc1[N+](=O)[O-]` [compound 9], the IC50 was 530 nM. In the case of `O=C(Nc1ccc(C(=O)N2CCCc3ccccc32)cc1)c1cc(Cl)cc(Cl)c1` [compound 10], the IC50 is reported as 82 nM. `CC(C)(C)CC(=O)Nc1ccc(C(=O)N2CCCc3ccccc32)cc1` [compound 11] gave an IC50 of 1050 nM. With `O=C(CC1CCCCC1)Nc1ccc(C(=O)N2CCCc3ccccc32)cc1` [compound 12] the IC50 was 1970 nM. `O=C(Cc1ccccc1)Nc1ccc(C(=O)N2CCCc3ccccc32)cc1` [compound 13] was tested, and the IC50 was 1020 nM. In the case of `O=C(Nc1ccc(C(=O)N2CCCc3ccccc32)cc1)C1CCCCC1` [compound 14], the IC50 is reported as 230 nM. `O=C(Nc1ccc(C(=O)N2CCCc3ccccc32)cc1)C1CCCCCC1` [compound 15] gave an IC50 of 130 nM. `O=C(Nc1ccc(C(=O)N2CCCc3ccccc32)cc1)C1CCCCCCC1` [compound 16] gave an IC50 of 170 nM. For `O=C(Nc1ccc(C(=O)N2CCCc3ccccc32)cc1)c1cccc2ccccc12` [compound 18], the IC50 was 1000 nM. Work on `O=C(Nc1ccccc1C(=O)N1CCCc2ccccc21)c1ccc2ccccc2c1` [compound 20] yielded an IC50 of 1400 nM. In the case of `COc1ccc(NC(=O)c2ccc(C(=O)N3CCCc4ccccc43)cc2)cc1` [compound 21], the IC50 is reported as 1000 nM. With `Cc1ccccc1NC(=O)c1ccc(C(=O)N2CCCc3ccccc32)cc1` [compound 22] the IC50 was 330 nM. `O=C(Nc1cccc(Cl)c1)c1ccc(C(=O)N2CCCc3ccccc32)cc1` [compound 23] gave an IC50 of 1070 nM. With `O=C(Nc1cc(Cl)cc(Cl)c1)c1ccc(C(=O)N2CCCc3ccccc32)cc1` [compound 24] the IC50 was 1090 nM. Compound `O=C(NC1CCCCC1)c1ccc(C(=O)N2CCCc3ccccc32)cc1` [compound 25] has an IC50 of 1670 nM. `N#Cc1cccc(C(=O)Nc2ccc(C(=O)N3CCCCc4ccccc43)cc2)c1` [compound 31] was tested, and the IC50 was 98 nM. `O=C(Nc1ccc(C(=O)N2CCCCCc3ccccc32)cc1)C1CCCCC1` [compound 34] was tested, and the IC50 was 49 nM. For `O=C(Nc1ccc(C(=O)N2CCCCCc3ccccc32)cc1)c1ccccc1` [compound 35], the IC50 was 200 nM. Work on `COc1cccc(C(=O)Nc2ccc(C(=O)N3CCCCCc4ccccc43)cc2)c1` [compound 37] yielded an IC50 of 160 nM. `Cc1cccc(C(=O)Nc2ccc(C(=O)N3CCCCCc4ccccc43)cc2)c1C` [compound 38] showed an IC50 of 29 nM. With `O=C(Nc1ccc(C(=O)N2CCCCCc3ccccc32)cc1)c1cc(Cl)cc(Cl)c1` [compound 39] the IC50 was 71 nM. For `Cc1cccc(C(=O)Nc2ccc(C(=O)N3CCOCc4ccccc43)cc2)c1` [compound 41], the IC50 was 200 nM. Compound `Cc1cccc(C(=O)Nc2ccc(C(=O)N3CCOCc4ccccc43)cc2)c1C` [compound 42] has an IC50 of 63 nM. `O=C(Nc1ccc(C(=O)N2CCOCc3ccccc32)cc1)c1cc(Cl)cc(Cl)c1` [compound 43] gave an IC50 of 170 nM. Compound `CC1Cc2ccccc2N(C(=O)c2ccc(NC(=O)C3CCCCC3)cc2)C1` (stereo not shown) [compound 44] has an IC50 of 50 nM. Work on `CC1Cc2ccccc2N(C(=O)c2ccc(NC(=O)c3ccccc3)cc2)C1` (stereo not shown) [compound 45] yielded an IC50 of 190 nM. `COc1cccc(C(=O)Nc2ccc(C(=O)N3CC(C)Cc4ccccc43)cc2)c1` (stereo not shown) [compound 47] showed an IC50 of 200 nM.
